# Tested on: PDE4
# Assay: Inhibition of PDE4 activity (method of Bauer and Schwabe, adapted to microtiter plates)
# Assay type: biochemical
# Details: inhibitory concentration as −log IC50 (mol/l)
# Procedure: The activity test was carried out according to the method of Bauer and Schwabe, which was adapted to microtiter plates (Naunyn-Schmiedeberg's Arch. Pharmacol. 1980, 311, 193-198). The PDE reaction takes place in the first step here. In a second step, the resulting 5′-nucleotide is cleaved by a 5′-nucleotidase of the snake venom of Crotalus atrox to the uncharged nucleoside. In the third step, the nucleoside is separated from the remaining charged substrate on ion-exchange columns. The columns are eluted directly into minivials, into which 2 ml of scintillator fluid are additionally added, for counting using 2 ml of 30 mM ammonium formate (pH 6.0).
# The inhibitory values determined for the compounds according to the invention [inhibitory concentration as −log Ic50 (mol/l)] follow from the following Table A, in which the numbers of the compounds correspond to the numbers of the examples.
row,SMILES,"−log IC50, inhibition of the PDE4 activity"
1,"COc1cc2c(cc1OC)[C@@H]1CCCC[C@@H]1N=C2c1ccc(C(=O)c2ccc(Cl)cc2)cc1 (relative stereo) [Compound 27, (−)-cis-8,9-Dimethoxy-6-[4-(4-chlorbenzoyl)phenyl]-1,2,3,4,4a,10b-hexahydrophenanthridine]",7.3
2,"COc1cc2c(cc1OC)[C@@H]1CCCC[C@@H]1N=C2c1ccc(C(=O)c2cccc(Cl)c2)cc1 (relative stereo) [Compound 28, (−)-cis-8,9-Dimethoxy-6-[4-(3-chlorbenzoyl)phenyl]-1,2,3,4,4a,10b-hexahydrophenanthridine]",7.61
3,"COc1cc2c(cc1OC)C1CCCCC1N=C2c1ccc(C(C)=O)cc1 (single isomer, unassigned; (-)) [Compound 2, (−)-cis-8,9-Dimethoxy-6-(4-acetophenyl)-1,2,3,4,4a,10b-hexahydrophenanthridine]",7.27
4,"COc1cc2c(cc1OC)C1CCCCC1N=C2c1ccc(OCC2CC2)c(OCC2CC2)c1 (single isomer, unassigned; (-)) [Compound 15, (−)-cis-8,9-Dimethoxy-6-[3,4-bis-(cyclopropylmethoxy)phenyl]-i,2,3,4,4a,10b-hexahydrophenanthridine]",7.89
5,"COc1cc2c(cc1OC)C1CCCCC1N=C2c1ccc(C(=O)N2CCCCC2)cc1 (single isomer, unassigned; (-)) [Compound 16, (−)-cis-8,9-Dimethoxy-[4-(piperdin-1-ylcarbonyl)phenyl]-1,2,3,4,4a,10b-hexahydrophenanthridine]",8.02
6,"COc1cc2c(cc1OC)C1CCCCC1N=C2c1ccc(CN2CCN(C)CC2)cc1 (single isomer, unassigned; (-)) [Compound 22, (−)-cis-8,9-Dimethoxy-6-[4-(4-methylpiperazin-1-ylmethyl)phenyl]-1,2,3,4,4a,10b-hexphenanthridine]",7.27
7,"COc1cc2c(cc1OC)C1CCCCC1N=C2c1ccc(C(=O)c2ccncc2)cc1 (single isomer, unassigned; (-)) [Compound 32, (−)-cis-8,9-Dimethoxy-6-[4-(pyridyl-4-carbonyl)phenyl]-1,2,3,4,4a,10b-hexahydrophenanthridine]",7.45
8,"CCOc1cc2c(cc1OC)C(c1ccc(OCC3CC3)c(OCC3CC3)c1)=NC1CCCCC21 (single isomer, unassigned; (-)) [Compound 40, (−)-cis-9-Ethoxy-8-methoxy-6-[3,4-bis(cyclopropylmethoxy)phenyl]-4,2,3,4,4a,10b-hexahydrophenanthridine]",8.65
9,"COc1cc2c(cc1OC)C1CCCCC1N=C2c1ccc(OC)c(OC2CCC2)c1 (single isomer, unassigned; (-)) [Compound 44, (−)cis-8,9-Dimethoxy-6-[(3-cyclobutoxy-4-methoxy)phenyl]-1,2,3,4,4a,10b-hexahydrophenanthridine]",7.58
10,"COc1cc2c(cc1OC)C1CCCCC1N=C2c1ccc(NC(C)=O)c(OCC2CC2)c1 (single isomer, unassigned; (-)) [Compound 45, (−)-cis-8,9-Dimethoxy-6-[(3-cyclopropylmethoxy-4-acetamido)phenyl]-1,2,3,4,4a,10b-hexahydrophenanthridine]",8.04
11,"COc1cc2c(cc1OC)C1CCCCC1N=C2c1ccc(OC)c(N2CCCC2)c1 (single isomer, unassigned; (-)) [Compound 46, (−)-cis-8,9-Dimethoxy-6-[(4-methoxy-3-pyrrolidin-1-yl)phenyl]-1,2,3,4,4a,10b-hexahydrophenanthridine]",7.16
12,"COc1cc2c(cc1OC)[C@@H]1CCCC[C@@H]1N=C2c1ccc(C(=O)c2ccccc2)cc1 [Compound 1, (−)-cis-8,9-Dimethoxy-6-(4-benzoylphenyl)-1,2,3,4,4a,10b-hexahydrophenanthridine]",7.82
13,"COc1cc2c(cc1OC)[C@@H]1CCCC[C@@H]1N=C2c1cccc(C(=O)c2ccccc2)c1 [Compound 3, (−)-cis-8,9-Dimethoxy-6-(3-benzoylphenyl)-1,2,3,4,4a,10b-hexahydrophenanthridine]",8.64
14,"COc1cc2c(cc1OC)[C@@H]1CCCC[C@@H]1N=C2c1cccc(Oc2ccccc2)c1 [Compound 5, (−)-cis-8,9-Dimethoxy-6-(3-phenoxyphenyl)-1,2,3,4,4a,10b-hexahydrophenanthridine]",8.54
15,"COc1cc2c(cc1OC)[C@@H]1CCCC[C@@H]1N=C2c1cccc(OCCc2ccccc2)c1 [Compound 8, (−)-cis-8,9-Dimethoxy-6-(3-phenethyloxyphenyl)-1,2,3,4,4a,10b-hexahydrophenanthridine]",8.41
16,"COc1cc2c(cc1OC)[C@@H]1CCCC[C@@H]1N=C2c1ccc(OC)c(OC2CCCC2)c1 [Compound 9, (−)-cis-6-(3-Cyclopentyloxy-4-methoxyphenyl)-8,9-dimethoxy-1,2,3,4,4a,10b-hexahydrophenanthridine]",7.79

row,SMILES,"−log IC50, inhibition of the PDE4 activity"
1,"COc1cc2c(cc1OC)[C@@H]1CCCC[C@@H]1N=C2c1ccc(OCc2ccccc2)c(OCC2CC2)c1 [Compound 10, (−)-cis-6-(4-Benzyloxy-3-cyclopropylmethoxyphenyl)-8,9-dimethoxy-1,2,3,4,4a,10b-hexahydrophenanthridine]",8.09
2,"COc1cc2c(cc1OC)[C@@H]1CCCC[C@@H]1N=C2c1ccc(OC)c(OCc2ccccc2)c1 [Compound 11, (+)-cis-6-(3-Benzyloxy-4-methoxyphenyl)-8,9-dimethoxy-1,2,3,4,4a,10b-hexahydrophenanthridine]",8.03
3,"COc1cc2c(cc1OC)[C@@H]1CCCC[C@@H]1N=C2c1ccc(OC)c(OCC2CC2)c1 [Compound 12, (−)-cis-8,9-Dimethoxy-6-[3-cyclopropylmethoxy4-methoxyphenyl]-1,2,3,4,4a,10b-hexahydrophenanthridine]",7.80
4,"COc1cc2c(cc1OC)[C@@H]1CCCC[C@@H]1N=C2c1cccc(OS(C)(=O)=O)c1 [Compound 13, (−)-cis-8,9-Dimethoxy-6-(3-methanesulfonyloxyphenyl)-1,2,3,4,4a,10b-hexahydrophenanthridine]",8.33
5,"COc1cc2c(cc1OC)[C@@H]1CCCC[C@@H]1N=C2c1cccc(OS(=O)(=O)c2ccc(C)cc2)c1 [Compound 14, (−)-cis-8,9-Dimethoxy-6-[3-(p-toluenesulfonyloxy)phenyl)-1,2,3,4,4a,10b-hexahydrophenanthridine]",8.44
6,"COc1cc2c(cc1OC)[C@@H]1CCCC[C@@H]1N=C2c1ccc(CN2CCOCC2)cc1 [Compound 21, (−)-cis-8,9-Dimethoxy-6-[4-(morpholin-4-ylmethyl)phenyl]-1,2,3,4,4a,10b-hexahydrophenanthridine]",7.35
7,"CCOc1cc2c(cc1OC)C(c1ccc(C(=O)c3ccccc3)cc1)=N[C@H]1CCCC[C@@H]21 [Compound 25, (−)-cis-9-Ethoxy-8-methoxy-6-(4-benzoylphenyl)-1,2,3,4,4a,10b-hexahydrophenanthridine]",8.87
8,"COc1ccc(C(=O)c2ccc(C3=N[C@H]4CCCC[C@H]4c4cc(OC)c(OC)cc43)cc2)cc1 [Compound 26, (−)-cis-8,9-Dimethoxy-6-[4-(4-methoxybenzoyl)phenyl]-1,2,3,4,4a,10b-hexahydrophenanthridine]",7.46
9,"COc1cc2c(cc1OC)[C@@H]1CCCC[C@@H]1N=C2c1ccc(C(=O)c2ccc([N+](=O)[O-])cc2)cc1 [Compound 29, (−)cis-8,9-Dimethoxy-6-[4-(4-nitrobenzoyl)phenyl]-1,2,3,4,4a,10b-hexahydrophenanthridine]",7.28
10,"COc1cc2c(cc1OC)[C@@H]1CCCC[C@@H]1N=C2c1ccc(C(=O)c2ccc(C#N)cc2)cc1 [Compound 31, (−)-cis-8,9-Dimethoxy-6-[4-(4-cyanobenzoyl)phenyl]-1,2,3,4,4a,10b-hexahydrophenanthridine]",7.8
11,"COc1cc2c(cc1OC)[C@@H]1CCCC[C@@H]1N=C2c1cccc(S(=O)(=O)c2ccccc2)c1 [Compound 33, (−)-cis-8,9-Dimethoxy-6-[3-(phenylsulfonyl)phenyl]-1,2,3,4,4a,10b-hexahydrophenanthridine]",8.23
12,"COc1cc2c(cc1OC)[C@@H]1CCCC[C@@H]1N=C2c1ccc(S(=O)(=O)c2ccccc2)cc1 [Compound 34, (−)-cis-8,9-Dimethoxy-6-[4-(phenylsulfonyl)phenyl]-1,2,3,4,4a,10b-hexahydrophenanthridine]",7.89
13,"COc1ccc(Oc2cccc(C3=N[C@H]4CCCC[C@H]4c4cc(OC)c(OC)cc43)c2)cc1 [Compound 36, (−)-cis-8,9-Dimethoxy-6-[3-(4-methoxyphenoxy)phenyl]-1,2,3,4,4a,10b-hexahydrophenanthridine]",8.78
14,"COc1cc2c(cc1OC)[C@@H]1CCCC[C@@H]1N=C2c1cccc(Oc2ccncc2)c1 [Compound 37, (−)-cis-8,9-Dimethoxy-6-[3-(pyrid-4-yloxy)phenyl]-1,2,3,4,4a,10b-hexahydrophenanthridine]",7.92
15,"CCOc1ccc(C2=N[C@H]3CCCC[C@H]3c3cc(OC)c(OC)cc32)cc1OCC1CC1 [Compound 38, (−)-cis-8,9-Dimethoxy-6-(3-cyclopropylmethoxy-4-ethoxyphenyl)-1,2,3,4,4a,10b-hexahydrophenanthridine]",7.47

# — patent US6476025B1, “Phenylphennanthridines with PDE-IV inhibiting activity” (Altana Pharma AG, priority 1999, dated 2002)
